# Results taken from US8440830B2, “Tetrahydro-fused pyridines as histone deacetylase inhibitors” (4SC AG, priority 2007, dated 2013).
# Test system: A549 NSCLC cells
# Experiment: Cellular cytotoxicity assay (Alamar Blue), A549
# Assay type: cell-based
# Conditions: Homo sapiens, 72 h, upper end given as ≧100, read-out: IC50 (μM), cytotoxicity towards A549 NSCLC cells
# Description: The anti-proliferative activity of the histone deacetylase inhibitory compounds as described herein, is evaluated using the following cell lines: HeLa and HeLa-KB (cervical carcinoma), H460 (non small cell lung cancer), A549 (non-small cell lung cancer), MCF7 (breast carcinoma), MCF10A (normal, non tumorigenic breast epithelial), MDA-MB468 (breast carcinoma), MDA-MB435 (breast carcinoma), MDA-MB231 (breast carcinoma), SKBR-3 (breast carcinoma), SKOV-3 (ovarial carcinoma), A-2780 (ovarial carcinoma), RKO (colon carcinoma), HCT-15 (colon carcinoma), HCT-116 (colon carcinoma), PC3 (prostate carcinoma), BPH1 (benign prostate hyperplasia), AsPC1 (pancreatic carcinoma), Ca127 (tongue carcinoma), A-431 (vulva carcinoma), Hec1A (endometrial carcinoma), Saos-2 (osteosarcoma), U87MG (glioblastoma), WM266-4 (melanoma), K562 (chronic myeloid leukemia), EOL1 (acute hypereosinophilic myeloid leukemia), CCRF-CEM and CCRF-CEM VCR1000 (acute lymphoblastic leukemia sensitive and resistant towards Vincristine). For quantification of cellular proliferation/living cells the Alamar Blue (Resazurin) cell viability assay is applied (O'Brien et al. Eur J Biochem 267, 5421-5426, 2000). In this assay Resazurin is reduced to the fluorescent resorufine by cellular dehydrogenase activity, correlating with viable, proliferating cells. The examples are dissolved as 20 mM solutions in dimethylsulfoxide (DMSO) and subsequently diluted in semi-logarithmic steps. Cell lines are seeded at respective density into 96 well flat bottom plates in a volume of 200 μl per well. 24 h after seeding 1 μl each of the compound dilutions are added into each well of the 96 well plate. Each compound dilution is tested as quadruplicates. Wells containing untreated control cells are filled with 200 μl DMEM medium containing 0.5% v:v DMSO. The cells are then incubated with the compounds for 72 h at 37° C. in a humidified atmosphere containing 5% carbon dioxide. To determine the viability of the cells, 20 μl of a Resazurin solution (Sigma; 90 mg/l) are added. After 4 h incubation at 37° C. the fluorescence is measured at an extinction of λ=544 nm and an emission of λ=590 nm. For the calculation of the cell viability the emission value from untreated cells is set as 100% viability and the emission rates of treated cells are set in relation to the values of untreated cells. Viabilities are expressed as % values. The corresponding IC50 values of the compounds for cytotoxic activity are determined from the concentration-effect curves by means of non-linear regression.
row,Structure (SMILES),IC50 [µM]
1,"COc1ccc(NC(=O)N2CCc3nc(C(=O)Nc4cc(N(C)C)ccc4N)sc3C2)cc1 [Example 53, N^2-[2-amino-5-(dimethylamino)phenyl]N^5-(4-methoxyphenyl)-6,7-dihydro[1,3]thiazolo[5,4-c]pyridine-2,5(4H)-dicarboxamide]",≥ 0.2
2,"COc1ccc(NC(=O)N2CCc3nc(C(=O)Nc4cc(-c5cccs5)ccc4N)sc3C2)cc1 [Example 54, N^2-[2-amino-5-(2-thienyl)phenyl]-N^5-(4-methoxyphenyl)-6,7-dihydro[1,3]thiazolo[5,4-c]pyridine-2,5(4H)-dicarboxamide]",≥ 0.2
3,"CN(C)c1ccc(NC(=O)N2CCc3nc(C(=O)Nc4cc(-c5cccs5)ccc4N)sc3C2)cc1 [Example 55, N^2-[2-amino-5-(2-thienyl)phenyl]-N^5-[4-(dimethylamino)phenyl]-6,7-dihydro[1,3]thiazolo[5,4-c]pyridine-2,5(4H)-dicarboxamide]",≥ 0.2
4,"COc1ccc(NC(=O)N2CCc3nc(C(=O)Nc4cc(-c5ccsc5)ccc4N)sc3C2)cc1 [Example 56, N^2-[2-amino-5-(3-thienyl)phenyl]-N^5-(4-methoxyphenyl)-6,7-dihydro[1,3]thiazolo[5,4-c]pyridine-2,5(4H)-dicarboxamide]",≥ 0.2
5,"Nc1ccccc1NC(=O)c1nc2c(s1)CN(C(=O)Nc1cccc3cnccc13)CC2 [Example 62, N^2-(2-aminophenyl)-N^5-isoquinolin-5-yl-6,7-dihydro[1,3]thiazolo[5,4-c]pyridine-2,5(4H)-dicarboxamide]",≥ 0.2
6,"CN(C)c1ccc(NC(=O)C(=O)N2CCc3nc(C(=O)Nc4ccccc4N)sc3C2)cc1 [Example 64, N-(2-aminophenyl)-5-[{[4-(dimethylamino)phenyl]amino}(oxo)acetyl]-4,5,6,7-tetrahydro[1,3]thiazolo[5,4-c]pyridine-2-carboxamide]",≥ 0.2
7,"COc1ccc(NC(=O)C(=O)N2CCc3nc(C(=O)Nc4ccccc4N)sc3C2)cc1 [Example 65, N-(2-aminophenyl)-5-{[(4-methoxyphenyl)amino](oxo)acetyl}-4,5,6,7-tetrahydro[1,3]thiazolo[5,4-c]pyridine-2-carboxamide]",≥ 0.2
8,"COc1ccc(NC(=O)C(=O)N2CCc3nc(C(=O)Nc4ccccc4N)sc3C2)cc1OC [Example 66, N-(2-aminophenyl)-5-{[(3,4-dimethoxyphenyl)amino](oxo)acetyl}-4,5,6,7-tetrahydro[1,3]thiazolo[5,4-c]pyridine-2-carboxamide]",≥ 0.2
9,"Nc1ccccc1NC(=O)c1nc2c(s1)CN(C(=O)C(=O)NC1CCC(c3ccncc3)CC1)CC2 (centres unmarked) [Example 67, N-(2-aminophenyl)-5-{oxo[(4-pyridin-4-ylcyclohexyl)amino]acetyl}-4,5,6,7-tetrahydro[1,3]thiazolo[5,4-c]pyridine-2-carboxamide]",≥ 0.2
10,"Nc1ccccc1NC(=O)c1nc2c(s1)CN(C(=O)C(=O)Nc1cccc3cnccc13)CC2 [Example 68, N-(2-aminophenyl)-5-[(isoquinolin-5-ylamino)(oxo)acetyl]-4,5,6,7-tetrahydro[1,3]thiazolo[5,4-c]pyridine-2-carboxamide]",≥ 0.2
11,"Nc1ccccc1NC(=O)c1nc2c(s1)CN(C(=O)C(=O)NC1CCC(c3cccnc3)CC1)CC2 (centres unmarked) [Example 69, N-(2-aminophenyl)-5-{oxo[(4-pyridin-3-ylcyclohexyl)amino]acetyl}-4,5,6,7-tetrahydro[1,3]thiazolo[5,4-c]pyridine-2-carboxamide]",≥ 0.2
12,"COc1ccc(NC(=O)C(=O)N2CCc3nc(C(=O)Nc4ccccc4N)sc3C2)cn1 [Example 70, N-(2-aminophenyl)-5-{[(6-methoxypyridin-3-yl)amino](oxo)acetyl}-4,5,6,7-tetrahydro[1,3]thiazolo[5,4-c]pyridine-2-carboxamide]",≥ 0.2
13,"CN(C)c1ccc(NC(=O)C(=O)N2CCc3nc(C(=O)Nc4ccccc4N)sc3C2)cn1 [Example 71, N-(2-aminophenyl)-5-[{[6-(dimethylamino)pyridin-3-yl]amino}(oxo)acetyl]-4,5,6,7-tetrahydro[1,3]thiazolo[5,4-c]pyridine-2-carboxamide]",≥ 0.2
14,"Nc1ccccc1NC(=O)c1nc2c(s1)CN(C(=O)C(=O)Nc1ccc(OC(F)(F)F)cc1)CC2 [Example 72, N-(2-aminophenyl)-5-(oxo{[4-(trifluoromethoxy)phenyl]amino}acetyl)-4,5,6,7-tetrahydro[1,3]thiazolo[5,4-c]pyridine-2-carboxamide]",≥ 0.2
15,"Nc1ccccc1NC(=O)c1nc2c(s1)CN(C(=O)C(=O)Nc1ccc(N3CCOCC3)nc1)CC2 [Example 73, N-(2-aminophenyl)-5-{[(6-morpholin-4-ylpyridin-3-yl)amino](oxo)acetyl}-4,5,6,7-tetrahydro[1,3]thiazolo[5,4-c]pyridine-2-carboxamide]",≥ 0.2
16,"Nc1ccccc1NC(=O)c1nc2c(s1)CN(C(=O)C(=O)Nc1ccc3c(c1)OCO3)CC2 [Example 74, N-(2-aminophenyl)-5-[(1,3-benzodioxol-5-ylamino)(oxo)acetyl]-4,5,6,7-tetrahydro[1,3]thiazolo[5,4-c]pyridine-2-carboxamide]",≥ 0.2
17,"Cc1ccc(NC(=O)C(=O)N2CCc3nc(C(=O)Nc4ccccc4N)sc3C2)cc1 [Example 75, N-(2-aminophenyl)-5-{[(4-methylphenyl)amino](oxo)acetyl}-4,5,6,7-tetrahydro[1,3]thiazolo[5,4-c]pyridine-2-carboxamide]",≥ 0.2
18,"Cc1ccc(NC(=O)C(=O)N2CCc3nc(C(=O)Nc4ccccc4N)sc3C2)nc1 [Example 76, N-(2-aminophenyl)-5-{[(5-methylpyridin-2-yl)amino](oxo)acetyl}-4,5,6,7-tetrahydro[1,3]thiazolo[5,4-c]pyridine-2-carboxamide]",≥ 0.2
19,"Nc1ccccc1NC(=O)c1nc2c(s1)CN(C(=O)C(=O)Nc1cnc3ccccc3c1)CC2 [Example 77, N-(2-aminophenyl)-5-[oxo(quinolin-3-ylamino)acetyl]-4,5,6,7-tetrahydro-[1,3]thiazolo[5,4-c]pyridine-2-carboxamide]",≥ 0.2
20,"COc1ccc(NC(=O)C(=O)N2CCc3nc(C(=O)Nc4cc(OC)ccc4N)sc3C2)cc1 [Example 78, N-(2-amino-5-methoxyphenyl)-5-{[(4-methoxyphenyl)amino](oxo)acetyl}-4,5,6,7-tetrahydro[1,3]thiazolo[5,4-c]pyridine-2-carboxamide]",≥ 0.2
21,"CCCCNC(=O)C(=O)N1CCc2nc(C(=O)Nc3ccccc3N)sc2C1 [Example 79, N-(2-aminophenyl)-5-[(butylamino)(oxo)acetyl]-4,5,6,7-tetrahydro[1,3]thiazolo[5,4-c]pyridine-2-carboxamide]",≥ 0.2
22,"COc1ccc(NC(=O)C(=O)N2CCc3nc(C(=O)Nc4cc(C(C)C)ccc4N)sc3C2)cc1OC [Example 80, N-(2-amino-5-isopropylphenyl)-5-{[(3,4-dimethoxyphenyl)amino](oxo)acetyl}-4,5,6,7-tetrahydro[1,3]thiazolo[5,4-c]pyridine-2-carboxamide]",≥ 0.2
23,"COc1ccc(NC(=O)C(=O)N2CCc3nc(C(=O)Nc4cc(C(C)C)ccc4N)sc3C2)cc1 [Example 81, N-(2-amino-5-isopropylphenyl)-5-{[(4-methoxyphenyl)amino](oxo)acetyl}-4,5,6,7-tetrahydro[1,3]thiazolo[5,4-c]pyridine-2-carboxamide]",≥ 0.2
